Earlier results on 1 compound are cited in patent US6020328A, “20-keto-11β-arylsteroids and their derivatives having agonist or antagonist hormonal properties” (Research Triangle Institute, priority 1998, dated 2000).

SMILES strings stand for the structures.

This series concerns rabbits. As to conditions: in words; Cook et al., Human Reproduction 1994; cited from earlier work.

In the case of `CC(=O)O[C@]1(C(C)=O)CC[C@H]2[C@@H]3CCC4=CC(=O)CCC4=C3[C@@H](c3ccc(N(C)C)cc3)C[C@@]21C` [17α-acetoxy-11β-(4-(N,N-dimethylamino)phenyl)-19-norpregna-4,9-diene-3,20-dione], the antiprogestational activity result was “potent antiprogestational activity”.
